According to the supplement of paper PMC10307832:

Key:
Assay in all cases: relative viability (nuclei count vs DMSO), 5 days (fraction); higher = more cells survive
[1] = compound: C(C(=O)C(=O)O)Br [Bromopyruvate] + COc1cccc2cc(-c3nc([C@H]4CC[C@H](C(=O)O)CC4)n4ncnc(N)c34)[nH]c12 [OSI-027] (partner 0.5 µM)
In short: (§1)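 Relative viability was taken as the ratio of nuclei in treated wells to nuclei in vehicle wells. Lung cancer cell lines in 1536-well plates received compounds by pin tool one day after seeding, either one drug alone or a fixed anchor-drug dose plus five library-drug doses (not always all listed) in √10 steps. Nuclei were counted on 4× images after 5 days of treatment, and values are medians of duplicate plates.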

[2] = compound: C(C(=O)C(=O)O)Br [Bromopyruvate] + C[C@]1(O)C[C@@H](c2nc(-c3ccc4ccc(-c5ccccc5)nc4c3)c3c(N)nccn32)C1 [Linsitinib] (partner 1 µM)
In short: as §1

[3] = compound: C(C(=O)C(=O)O)Br [Bromopyruvate] + N=C(N)NC(=N)NCCc1ccccc1 [Phenformin] (partner 250 µM)
In short: as §1

[4] = compound: CC(O)(CS(=O)(=O)c1ccc(F)cc1)C(=O)Nc1ccc(C#N)c(C(F)(F)F)c1 [Bicalutamide] + CCNC(=O)c1noc(-c2cc(C(C)C)c(O)cc2O)c1-c1ccc(CN2CCOCC2)cc1 [Luminespib] (partner 0.01 µM)
In short: as §1

| Cell Line | relative viability ([1]; first compound 1 µM) | relative viability ([1]; first compound 3.162 µM) | relative viability ([1]; first compound 10 µM) | relative viability ([1]; first compound 31.62 µM) | relative viability ([1]; first compound 100 µM) | relative viability ([2]; first compound 1 µM) | relative viability ([2]; first compound 3.162 µM) | relative viability ([2]; first compound 10 µM) | relative viability ([2]; first compound 31.62 µM) | relative viability ([2]; first compound 100 µM) | relative viability ([3]; first compound 1 µM) | relative viability ([3]; first compound 3.162 µM) | relative viability ([3]; first compound 10 µM) | relative viability ([3]; first compound 31.62 µM) | relative viability ([3]; first compound 100 µM) | relative viability ([4]; first compound 0.08 µM) | relative viability ([4]; first compound 0.253 µM) | relative viability ([4]; first compound 0.8 µM) | relative viability ([4]; first compound 2.53 µM) |
| --- | --- | --- | --- | --- | --- | --- | --- | --- | --- | --- | --- | --- | --- | --- | --- | --- | --- | --- | --- |
| NCI-H650 | 0.584 | 0.545 | 0.575 | 0.501 | 0.59 | 0.756 | 0.976 | 0.871 | 0.921 | 1.03 | 0.532 | 0.45 | 0.414 | 0.462 | 0.47 | 0.822 | 0.793 | 0.947 | 0.792 |
| SK-MES-1 | 0.654 | 0.552 | 0.667 | 0.603 | 0.68 | 1.07 | 1.05 | 1.08 | 0.941 | 1.06 | 0.653 | 0.651 | 0.671 | 0.658 | 0.668 | 0.609 | 0.736 | 0.97 | 0.709 |
| NCI-H2087 | 0.55 | 0.612 | 0.637 | 0.542 | 0.462 | 0.856 | 1.04 | 0.932 | 0.954 | 0.959 | 0.493 | 0.445 | 0.578 | 0.414 | 0.392 | 0.157 | 0.153 | 0.168 | 0.259 |
| NCI-H838 | 0.428 | 0.37 | 0.422 | 0.386 | 0.393 | 0.966 | 1.05 | 1.23 | 1.02 | 1.1 | 0.557 | 0.604 | 0.656 | 0.603 | 0.555 | 0.282 | 0.226 | 0.331 | 0.309 |
| NCI-H460 | 0.588 | 0.82 | 0.91 | 0.661 | 0.728 | 0.801 | 0.832 | 1.09 | 0.717 | 0.744 | 0.512 | 0.556 | 0.658 | 0.494 | 0.508 | 0.0289 | 0.0405 | 0.0453 | 0.035 |
| LOU-NH91 | 0.804 | 0.716 | 0.747 | 0.694 | 0.756 | 0.89 | 0.964 | 0.944 | 1.04 | 1.1 | 0.759 | 0.77 | 0.74 | 0.74 | 0.747 | 0.367 | 0.295 | 0.331 | 0.322 |
| NCI-H322M | 0.515 | 0.58 | 0.576 | 0.523 | 0.599 | 0.869 | 0.913 | 0.981 | 0.908 | 0.891 | 0.727 | 0.756 | 0.809 | 0.796 | 0.784 | 0.872 | 0.891 | 1.03 | 1.06 |
| NCI-H520 | 0.243 | 0.259 | 0.25 | 0.23 | 0.289 | 1.06 | 1.09 | 1.11 | 0.961 | 0.893 | 0.646 | 0.648 | 0.623 | 0.702 | 0.473 | 0.232 | 0.22 | 0.274 | 0.205 |
| NCI-H661 | 0.719 | 0.67 | 0.685 | 0.64 | 0.749 | 0.556 | 0.631 | 0.591 | 0.727 | 0.676 | 0.294 | 0.263 | 0.237 | 0.287 | 0.276 | 0.938 | 0.94 | 0.928 | 0.954 |
| NCI-H727 | 0.644 | 0.624 | 0.682 | 0.55 | 0.638 | 0.307 | 0.495 | 0.296 | 0.291 | 0.283 | 0.607 | 0.778 | 0.578 | 0.622 | 0.527 | 0.366 |  | 0.378 | 0.339 |
| NCI-H1793 | 0.329 | 0.285 | 0.249 | 0.282 | 0.381 | 0.706 | 0.8 | 1.16 | 0.844 | 1.06 | 0.382 | 0.452 | 0.455 | 0.413 | 0.401 | 0.198 | 0.364 | 0.203 | 0.165 |
| NCI-H1734 | 0.599 | 0.611 | 0.731 | 0.562 | 0.595 | 0.837 | 0.949 | 0.989 | 0.852 | 0.905 | 0.342 | 0.471 | 0.513 | 0.392 | 0.385 | 0.193 | 0.174 | 0.212 | 0.186 |
| LXF-289 | 0.809 | 0.851 | 0.8 | 0.847 | 0.914 | 0.966 | 0.969 | 0.981 | 0.951 | 1.01 | 0.525 | 0.537 | 0.516 | 0.504 | 0.531 | 0.667 | 0.6 | 0.637 | 0.694 |
| H3255 | 0.523 | 0.637 | 0.683 | 0.679 | 0.573 | 0.945 | 1.02 | 0.997 | 0.967 | 1.1 | 0.365 | 0.421 | 0.432 | 0.399 | 0.37 | 0.827 | 0.857 |  | 0.813 |
| 201T | 0.508 | 0.752 | 0.71 | 0.763 | 0.638 | 1.05 | 1.07 | 1.06 | 1.02 | 1.11 | 0.504 | 0.489 | 0.481 | 0.453 | 0.455 | 1.06 | 1.03 | 1.02 | 1.1 |
| NCI-H2228 | 0.539 | 0.554 | 0.755 | 0.518 | 0.551 | 0.81 | 0.837 | 0.693 | 0.535 | 0.505 | 0.341 | 0.418 | 0.178 | 0.285 | 0.334 | 0.231 | 0.241 | 0.169 | 0.14 |
| HOP-62 | 0.799 | 0.743 | 1.02 | 0.803 | 0.891 | 1.04 | 1.02 |  | 0.368 | 0.24 | 0.704 | 0.643 | 0.645 | 0.737 | 0.696 | 0.917 | 1.01 | 1.09 | 0.885 |
